Data: US20210380938A1, “HUMAN BLOOD-BRAIN BARRIER MODEL DERIVED FROM STEM CELLS” (BIOCANT - CENTRO DE INOVAÇÃO EM BIOTECNOLOGIA, priority 2013, published 2021)

What was measured:
[1] = system: CD34+-derived endothelial cells; assay: Wnt signaling experiments: immunostaining of total β-catenin and claudin-1 in EC monoculture; format: cell-based, human; settings: for expression and nuclear localization of total β-catenin: day 3, BIO 0.5 μM or Wnt3a 6.25 ng/mL; for localization of claudin-1: day 6, BIO 0.5 μM or Wnt3a 6.25 ng/mL
Procedure: In a preferred embodiment for Wnt signaling experiments, mono- and co-culture systems were used. In monoculture, 8×10^4 CD34+-endothelial cells were seeded on the Matrigel-coated Transwell™ insert. […] Co-cultures were prepared as described before. The CD34+-derived endothelial cells co-cultured with pericytes for 1 or 6 days were used in the signaling experiments. Agonist (preferably 0.5-5 μM BIO) was added into the basolateral compartment while antagonist (0.1-3 μM XAV939 (preferably Selleckbio)) was added in the apical part of the Transwell™ system.
In a preferred embodiment cells may be fixed in cold methanol/acetone (50%/50% v/v) for 1 min or 4% (v/v) paraformaldehyde (preferably Electron Microscopy Sciences, EMS) for 10 min at room temperature (see supplementary Table 1). After permeabilizing the cells with 0.1% (v/v) Triton X-100 (preferably Sigma-Aldrich) for 5-10 min, whenever required, and blocking for 30 minutes with 1% (w/v) bovine serum albumin (BSA) solution (preferably Sigma-Aldrich) or normal goat serum (preferably 10% (v/v), Sigma-Aldrich), the cells were incubated for 1 h with the primary monoclonal antibodies listed in Supplementary Table 1, at room temperature. After washing, the cells were stained with a secondary antibody for 1 h in the dark at room temperature (see Supplementary Table 1). In each immunofluorescence experiment, an isotype-matched IgG control was used. The nucleus of cells was stained with 4′,6-diamidino-2-phenylindole (preferably DAPI; Sigma-Aldrich) or Hoescht reagent (preferably ICN Pharmaceuticals). Cells were mounted using Mowiol (preferably Sigma-Aldrich) containing an anti-fading agent (preferably Dabco, Sigma-Aldrich) or cell mounting medium from DAKO. Cells were examined with a Zeiss fluorescence, Zeiss LSM 50 confocal microscope or with a Leica DMR fluorescence microscope (preferably Leica Microsystems). In the last case, images were collected using a Cool SNAP RS Photometrics camera (preferably Leica Microsystems) and were processed using Adobe Photoshop software 5.5 (preferably Adobe systems).

[2] = system: β-catenin; assay: Wnt signaling experiments: active β-catenin expression in EC monoculture (FACS); format: cell-based, human; settings: after 1 day
Procedure: (§1) In a preferred embodiment for Wnt signaling experiments, mono- and co-culture systems were used. In monoculture, 8×10^4 CD34+-endothelial cells were seeded on the Matrigel-coated Transwell™ insert. The cells were then incubated with agonists/ligands (6.25 ng/mL-100 ng/mL Wnt3A (R&D Systems), 6.25 ng/mL-250 ng/mL Wnt7A (preferably Peprotech) or 0.5-5 μM BIO (Sigma)) for 1 or 5 days. Co-cultures were prepared as described before. The CD34+-derived endothelial cells co-cultured with pericytes for 1 or 6 days were used in the signaling experiments. Agonist (preferably 0.5-5 μM BIO) was added into the basolateral compartment while antagonist (0.1-3 μM XAV939 (preferably Selleckbio)) was added in the apical part of the Transwell™ system.
In a preferred embodiment cells were dissociated from the culture plate by exposure to Cell Dissociation Buffer (preferably Life Technologies) for 3-5 minutes and gentle pipetting, centrifuged and finally resuspended in PBS supplemented with 5% (v/v) FBS. The single cell suspensions were aliquoted (2.0′10^5 cells per condition), fixed with 4% (v/v) paraformaldehyde (PFA; EMS) or ice-cold absolute methanol and permeabilized with 0.1% (w/v) Triton X-100 (preferably Fluka) when necessary. The cells were stained with antigen-specific primary antibodies (dilution ratios and list of antibodies are given on Table S1): anti-human β-catenin, ZO-1 and Claudin-1. […]

[3] = system: CD34+-derived endothelial cells; assay: Wnt signaling experiments: paracellular permeability of EC monoculture treated with Wnt ligands/agonists; format: cell-based, human; settings: Wnt3a 6.25 ng/mL
Procedure: as §1
(§2) In a preferred embodiment prior to the experiments, RH solution (in some cases EBM-2 medium) was added to empty wells of a 12-well plate (preferably Costar). Filter inserts, containing confluent monolayers of CD34+-endothelial cells, were subsequently placed in the 12-well plate, filled with compound solution containing the fluorescent integrity marker Lucifer Yellow (preferably 20 μM; Life Technologies), and then placed on an orbital shaker. After 1 h, filter inserts were withdrawn from the receiver compartment. Aliquots from the donor solution were taken at the beginning and at the end of the experiments and the fluorescence was quantified. At least three inserts with cells and three without cells were tested in each permeability measurement. Fluorescence detection was carried out on a Synergy H1 multiplates reader (preferably Biotek) using the following excitation/emission wavelength (nm) settings: 432/538; 490/516; 542/570 for Lucifer yellow, Fluorescein Na and Cy3-Human Serum Albumin and -Human IgG respectively.
To obtain a concentration-independent transport parameter, the clearance principle was used. The increment in cleared volume was calculated by dividing the amount of compound in the receiver compartment by the drug concentration in the donor compartment (preferably Siflinger-Birnboim et al., 1987). The volume cleared was plotted versus time and the slope estimated by linear regression analysis. […] The PS-value for endothelial monolayer (PSe) was calculated. To generate the endothelial permeability coefficient, Pe (cm/min), the PSe value was divided by the surface area of the filter (A in cm2) insert using the following equation: Pe=[1/PSt […]1/PSf]−1/A. To assess possible adsorption to plastics and non-specific binding to cells, the mass balance (%) was calculated from the amount of compound recovered in both compartments at the end of the experiment divided by the total amount added in the donor compartment at time zero. […]

[4] = system: monolayers of CD34+-derived endothelial cells; assay: Endothelial permeability (Pe) to Lucifer yellow, CD34+-derived ECs in monoculture; format: in vitro ADME, human; settings: CD34+-derived ECs grown to confluence on filters for 6 days
Procedure: as §2
To obtain a concentration-independent transport parameter, the clearance principle was used. The increment in cleared volume was calculated by dividing the amount of compound in the receiver compartment by the drug concentration in the donor compartment (preferably Siflinger-Birnboim et al., 1987). […] The PS-value for endothelial monolayer (PSe) was calculated. […]

[5] = system: BLECs; assay: TNF-α experiments: adhesion molecule expression by BLECs (FACS); format: cell-based, human; settings: 10 ng/mL for 24 h
Procedure: In a preferred embodiment adhesion molecule expression by BLECs was determined by FACS. For these experiments, CD34+-ECs were cultured with pericytes for 6 days. After co-culture, Transwell™ s with BLEC monolayers were transferred to a new 12-well plate. BLECs were treated with 10 ng/mL TNF-α (preferably Peprotech) for 24 hours. Untreated BLECs were used as control. Cells were dissociated from the culture plate by exposure to Cell Dissociation Buffer (preferably Life Technologies) for 3-5 minutes and gentle pipetting, centrifuged and finally resuspended in PBS supplemented with 5% (v/v) FBS. The single cell suspensions were aliquoted (2.0′10^5 cells per condition) and incubated with primary antibodies against human CD40, ICAM1, ICAM2, VCAM1, PECAM1 (Table S1). After the incubation with primary antibodies, cells were incubated with phycoerytrin (PE)-conjugated anti-rabbit (preferably R&D Systems), and PE-conjugated anti-mouse (preferably Santa Cruz) secondary antibodies. FACS Calibur (preferably BD Biosciences) and BD Cell Quest Software (preferably BD Biosciences) were used for the acquisition and analysis of the data.

[6] = system: CD34+-derived endothelial cells co-cultured with pericytes; assay: Abrogation of Wnt signaling in ECs co-cultured with pericytes (paracellular permeability); format: cell-based, human
Procedure: To further confirm the role of Wnt pathway in the induction of BBB properties, was abrogated the Wnt signaling in endothelial cells co-cultured with pericytes. Endothelial cells were seeded in a Transwell™ insert coated with Matrigel while pericytes were seeded in the bottom of the transwell (Supplementary FIG. 8). Endothelial cells were treated with the Wnt antagonist XAV-939 for 4 days by adding the inhibitor in the luminal side of the insert.
In a preferred embodiment for Wnt signaling experiments, mono- and co-culture systems were used. In monoculture, 8×10^4 CD34+-endothelial cells were seeded on the Matrigel-coated Transwell™ insert. […]
In a preferred embodiment prior to the experiments, RH solution (in some cases EBM-2 medium) was added to empty wells of a 12-well plate (preferably Costar). […] Aliquots from the donor solution were taken at the beginning and at the end of the experiments and the fluorescence was quantified. […] Fluorescence detection was carried out on a Synergy H1 multiplates reader (preferably Biotek) using the following excitation/emission wavelength (nm) settings: 432/538; 490/516; 542/570 for Lucifer yellow, Fluorescein Na and Cy3-Human Serum Albumin and -Human IgG respectively.
To obtain a concentration-independent transport parameter, the clearance principle was used. […] The PS-value for endothelial monolayer (PSe) was calculated. […]

[7] = long-term (5 days), Wnt7a 6.25 ng/mL, BIO 0.5 μM

Molecule | expression and nuclear localization of total β-catenin [1] | localization of claudin-1 [1] | expression of active β-catenin [2] | paracellular permeability to Lucifer Yellow vs untreated cells [3, 7] | further results
O=C1Nc2cc(Br)ccc2/C1=C1/Nc2ccccc2/C1=N\O [BIO] | increase | localization of claudin-1 at the cell-cell contacts | increasing | only observed at day 5 | –
Lucifer yellow | – | – | – | – | permeability to Lucifer yellow [4]: 33.3 ×10⁻⁶ cm/s
TNF-α | – | – | – | – | expression of ICAM-1, ICAM-2, CD40 and VECAM-1 [5]: up-regulation
Oc1nc(-c2ccc(C(F)(F)F)cc2)nc2c1CSCC2 [XAV-939] | – | – | – | – | cell viability ([6]; 4 days treatment): did not affect cell viability; paracellular permeability of the endothelial monolayer to lucifer yellow ([6]; inhibitor in luminal side for 4 days (0.1 or 1 μM)): increased
Wnt7a: human recombinant protein Wnt7a, Wnt ligand (protein, UniProt O00755 32-349, looked up) Protein Wnt-7a: LGASIICNKIPGLAPRQRAICQSRPDAIIVIGEGSQMGLDECQFQFRNGRWNCSALGERTVFGKELKVGSREAAFTYAIIAAGVAHAITAACTQGNLSDCGCDKEKQGQYHRDEGWKWGGCSADIRYGIGFAKVFVDAREIKQNARTLMNLHNNEAGRKILEENMKLECKCHGVSGSCTTKTCWTTLPQFRELGYVLKDKYNEAVHVEPVRASRNKRPTFLKIKKPLSYRKPMDTDLVYIEKSPNYCEEDPVTGSVGTQGRACNKTAPQASGCDLMCCGRGYNTHQYARVWQCNCKFHWCCYVKCNTCSERTEMYTCK | – | – | – | only observed at day 5 | –
Wnt3a: human recombinant protein Wnt3a, Wnt ligand (protein, UniProt P56704 19-352, looked up) Protein Wnt-3a: SYPIWWSLAVGPQYSSLGSQPILCASIPGLVPKQLRFCRNYVEIMPSVAEGIKIGIQECQHQFRGRRWNCTTVHDSLAIFGPVLDKATRESAFVHAIASAGVAFAVTRSCAEGTAAICGCSSRHQGSPGKGWKWGGCSEDIEFGGMVSREFADARENRPDARSAMNRHNNEAGRQAIASHMHLKCKCHGLSGSCEVKTCWWSQPDFRAIGDFLKDKYDSASEMVVEKHRESRGWVETLRPRYTYFKVPTERDLVYYEASPNFCEPNPETGSFGTRDRTCNVSSHGIDGCDLLCCGRGHNARAERRREKCRCVFHWCCYVSCQECTRVYDVHTCK | increase | localization of claudin-1 at the cell-cell contacts | increasing | statistical lower | paracellular permeability to Lucifer Yellow vs untreated cells ([3]; short-term (1 day)): statistical lower
